Active and inactive are the calls of the source.
Key:
[1] = target: T1, Ubiquitin-conjugating enzyme E2 N (Homo sapiens, UniProt P61088); format: functional
T1 sequence (P61088 whole entry): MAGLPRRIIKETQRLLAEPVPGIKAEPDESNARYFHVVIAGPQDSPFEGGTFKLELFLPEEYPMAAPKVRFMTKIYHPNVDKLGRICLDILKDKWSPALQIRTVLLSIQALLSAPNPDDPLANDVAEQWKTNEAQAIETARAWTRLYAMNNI

[2] = target: 5-hydroxytryptamine receptor 5A (Homo sapiens, UniProt P47898); assay: Counterscreen for agonists of OPRM1-OPRD1 heterodimerization: luminescence-based cell-based high throughput dose response assay to identify agonists of 5-hydroxytryptamine (serotonin) 5A receptor (HTR5A). [Related pubchem assays (depositor defined):AID504326, AID504355, AID504692, AID504904, AID504905]; format: functional
Sequence of 5-hydroxytryptamine receptor 5A (P47898 whole entry): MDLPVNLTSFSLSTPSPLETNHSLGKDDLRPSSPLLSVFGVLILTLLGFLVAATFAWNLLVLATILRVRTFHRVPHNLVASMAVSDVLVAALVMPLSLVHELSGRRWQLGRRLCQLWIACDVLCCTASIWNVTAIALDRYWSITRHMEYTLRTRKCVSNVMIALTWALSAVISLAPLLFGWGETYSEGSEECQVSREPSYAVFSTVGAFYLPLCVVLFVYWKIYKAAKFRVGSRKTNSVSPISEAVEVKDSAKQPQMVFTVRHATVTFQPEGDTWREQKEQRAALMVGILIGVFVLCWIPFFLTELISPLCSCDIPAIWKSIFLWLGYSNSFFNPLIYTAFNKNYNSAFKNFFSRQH

[3] = target: Intestinal-type alkaline phosphatase (Mus musculus, UniProt P24822); assay: PubChem AID 488785; format: functional
Sequence of Intestinal-type alkaline phosphatase (P24822 whole entry): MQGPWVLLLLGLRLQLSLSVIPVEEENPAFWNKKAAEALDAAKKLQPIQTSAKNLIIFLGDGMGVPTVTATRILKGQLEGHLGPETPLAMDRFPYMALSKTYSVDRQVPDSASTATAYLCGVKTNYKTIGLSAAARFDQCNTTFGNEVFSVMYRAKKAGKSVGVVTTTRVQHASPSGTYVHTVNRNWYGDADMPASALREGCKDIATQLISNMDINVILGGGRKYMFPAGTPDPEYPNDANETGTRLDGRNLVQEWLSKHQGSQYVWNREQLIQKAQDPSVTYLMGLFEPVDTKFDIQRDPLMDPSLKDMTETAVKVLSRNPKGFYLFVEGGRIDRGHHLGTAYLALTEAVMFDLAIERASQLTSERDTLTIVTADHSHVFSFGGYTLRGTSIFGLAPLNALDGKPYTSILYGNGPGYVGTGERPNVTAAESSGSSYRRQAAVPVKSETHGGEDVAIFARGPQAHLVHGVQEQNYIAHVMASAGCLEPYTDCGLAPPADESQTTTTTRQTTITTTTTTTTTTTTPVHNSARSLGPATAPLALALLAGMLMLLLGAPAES

[4] = target: Heat shock protein HSP 90-alpha (Homo sapiens, UniProt P07900); format: functional, organism-based
[5] = target: T2, Alkaline phosphatase, tissue-nonspecific isozyme (Homo sapiens, UniProt P05186); assay: TNAP enzyme inhibition by screening hits, dose response, selectivity assay for mouse IAP inhibitor project, biochemical, human TNAP, uHTS hits (AID 488906); format: functional
T2 sequence (P05186 whole entry): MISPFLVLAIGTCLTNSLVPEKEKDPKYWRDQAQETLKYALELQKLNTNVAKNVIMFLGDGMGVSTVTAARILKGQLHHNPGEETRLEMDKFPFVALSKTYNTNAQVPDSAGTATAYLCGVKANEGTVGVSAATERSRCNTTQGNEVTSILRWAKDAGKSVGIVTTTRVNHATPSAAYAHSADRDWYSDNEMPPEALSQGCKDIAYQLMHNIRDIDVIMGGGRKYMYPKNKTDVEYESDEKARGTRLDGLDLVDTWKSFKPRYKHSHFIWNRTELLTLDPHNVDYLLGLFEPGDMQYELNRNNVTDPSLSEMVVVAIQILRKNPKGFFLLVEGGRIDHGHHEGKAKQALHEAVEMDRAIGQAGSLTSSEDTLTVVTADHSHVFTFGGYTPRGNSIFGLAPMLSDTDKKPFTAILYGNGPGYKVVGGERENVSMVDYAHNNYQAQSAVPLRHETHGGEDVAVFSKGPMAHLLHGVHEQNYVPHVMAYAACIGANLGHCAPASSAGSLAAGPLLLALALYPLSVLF

Mu-type opioid receptor = Mu-type opioid receptor (Homo sapiens, UniProt P35372); assay: Counterscreen for agonists of heterodimerization of the mu 1 (OPRM1) and delta 1 (OPRD1) opioid receptors: Luminescence-based cell-based high throughput dose response assay to identify agonists of OPRM1 homodimerization.; format: functional;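 also: U2OS cells expressing OPRM1 and beta-arrestin as split beta-galactosidase partners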
Sequence of Mu-type opioid receptor (P35372 whole entry): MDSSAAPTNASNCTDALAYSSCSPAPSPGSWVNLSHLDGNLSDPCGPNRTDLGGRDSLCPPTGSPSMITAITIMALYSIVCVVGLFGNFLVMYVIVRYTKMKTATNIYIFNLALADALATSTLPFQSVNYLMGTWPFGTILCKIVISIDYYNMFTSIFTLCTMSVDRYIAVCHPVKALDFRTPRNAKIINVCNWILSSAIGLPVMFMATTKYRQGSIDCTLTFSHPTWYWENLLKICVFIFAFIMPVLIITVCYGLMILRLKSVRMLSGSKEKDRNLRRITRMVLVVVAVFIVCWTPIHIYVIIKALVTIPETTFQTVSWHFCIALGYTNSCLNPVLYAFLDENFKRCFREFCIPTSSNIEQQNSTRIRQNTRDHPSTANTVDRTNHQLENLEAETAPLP

## Clc1ccc(C(c2ccc(Cl)cc2)n2cc[n+](CC(OCc3ccc(Cl)cc3Cl)c3ccc(Cl)cc3Cl)c2)cc1 (stereo unspecified) [CALMIDAZOLIUM CHLORIDE]
[1]
  IC50: 5.6 µM (active)
[2]
  EC50: > 92.5 µM (inactive)
[3]
  IC50: 14.6 µM (active)
[4]
  AC50: 7.07 µM (active)
[5]
  IC50: > 100 µM (inactive)
Mu-type opioid receptor
  EC50: > 92.5 µM (inactive)

Source: ChEMBL document CHEMBL1201862, “PubChem BioAssay data set” (2004)
